Measurements from ChEMBL document CHEMBL3046293, “Fungicidal Activities of -Methoxyphenylacetic Acid Derivatives” (2002).

Key:
Type in all cases: functional
Blumeria graminis [1] = assay: Fungicidal activity against Blumeria graminis f. sp. tritici assessed as wheat powdery mildew disease control at 7.8 ppm foliar application for 24 hr after inoculation by curative manner
Blumeria graminis [2] = assay: Fungicidal activity against Blumeria graminis f. sp. tritici assessed as wheat powdery mildew disease control at 2 ppm foliar application for 24 hr after inoculation by curative manner
Blumeria graminis [3] = assay: Fungicidal activity against Blumeria graminis f. sp. tritici assessed as wheat powdery mildew disease control at 2 ppm foliar application for 24 hr before inoculation by preventive manner
Blumeria graminis [4] = assay: Fungicidal activity against Blumeria graminis f. sp. tritici assessed as wheat powdery mildew disease control at 31.3 ppm foliar application for 24 hr before inoculation by preventive manner
Blumeria graminis [5] = assay: Fungicidal activity against Blumeria graminis f. sp. tritici assessed as wheat powdery mildew disease control at 0.5 ppm foliar application for 24 hr after inoculation by curative manner
Blumeria graminis [6] = assay: Fungicidal activity against Blumeria graminis f. sp. tritici assessed as wheat powdery mildew disease control at 0.5 ppm foliar application for 24 hr before inoculation by preventive manner
Blumeria graminis [7] = assay: Fungicidal activity against Blumeria graminis f. sp. tritici assessed as wheat powdery mildew disease control at 7.8 ppm foliar application for 24 hr before inoculation by preventive manner
Pyricularia oryzae [8] = assay: Fungicidal activity against Magnaporthe oryzae Cav. race 003 assessed as rice blast disease control at 125 ppm treated 24 hr before inoculation by preventive manner
Botrytis cinerea [9] = assay: Fungicidal activity against Botryotinia fuckeliana assessed as cucumber gray mold disease control at 125 ppm treated 24 hr before inoculation by preventive manner
Podosphaera fuliginea [10] = assay: Fungicidal activity against Podosphaera fuliginea assessed as cucumber powdery mildew disease control at 7.8 ppm treated 24 hr before inoculation by preventive manner
Botrytis cinerea [11] = assay: Fungicidal activity against Botryotinia fuckeliana assessed as cucumber gray mold disease control at 31.3 ppm foliar application 24 hr before inoculation by preventive manner
Podosphaera fuliginea [12] = assay: Fungicidal activity against Podosphaera fuliginea assessed as cucumber powdery mildew control at 0.125 ppm foliar application 24 hr after inoculation by curative manner
Thanatephorus cucumeris [13] = assay: Fungicidal activity against Thanatephorus cucumeris assessed as rice sheath blight disease control at 7.8 ppm foliar application for 24 hr after inoculation by curative manner
Thanatephorus cucumeris [14] = assay: Fungicidal activity against Thanatephorus cucumeris assessed as rice sheath blight disease control at 125 ppm foliar application for 24 hr before inoculation by preventive manner
[15] = test system: Pseudoperonospora cubensis; assay: Fungicidal activity against Pseudoperonospora cubensis assessed as cucumber downy mildew disease control at 125 ppm foliar application 24 hr before inoculation onto the abaxial(treated) surface of leaf by preventive manner
Botrytis cinerea [16] = assay: Fungicidal activity against Botryotinia fuckeliana assessed as cucumber gray mold disease control at 7.8 ppm foliar application 24 hr after inoculation by curative manner
[17] = test system: Pseudoperonospora cubensis; assay: Fungicidal activity against Pseudoperonospora cubensis assessed as cucumber downy mildew disease control at 7.8 ppm foliar application 24 hr after inoculation by curative manner
[18] = test system: Pseudoperonospora cubensis; assay: Fungicidal activity against Pseudoperonospora cubensis assessed as cucumber downy mildew disease control at 125 ppm foliar application 24 hr after inoculation by curative manner
[19] = test system: Pseudoperonospora cubensis; assay: Fungicidal activity against Pseudoperonospora cubensis assessed as cucumber downy mildew disease control at 2 ppm foliar application 24 hr before inoculation onto the adaxial(treated) surface of leaf by preventive manner
[20] = test system: Pseudoperonospora cubensis; assay: Fungicidal activity against Pseudoperonospora cubensis assessed as cucumber downy mildew disease control at 125 ppm foliar application 24 hr before inoculation onto the adaxial(treated) surface of leaf by preventive manner
Pyricularia oryzae [21] = assay: Fungicidal activity against Magnaporthe oryzae Cav. race 003 assessed as rice blast disease control at 7.8 ppm foliar application for 24 hr before inoculation by preventive manner
[22] = test system: Pseudoperonospora cubensis; assay: Fungicidal activity against Pseudoperonospora cubensis assessed as cucumber downy mildew disease control at 31.3 ppm foliar application 24 hr after inoculation by curative manner
Pyricularia oryzae [23] = assay: Fungicidal activity against Magnaporthe oryzae Cav. race 003 assessed as rice blast disease control at 31.3 ppm foliar application for 24 hr before inoculation by preventive manner
Thanatephorus cucumeris [24] = assay: Fungicidal activity against Thanatephorus cucumeris assessed as rice sheath blight disease control at 2 ppm foliar application for 24 hr after inoculation by curative manner
Pyricularia oryzae [25] = assay: Fungicidal activity against Magnaporthe oryzae Cav. race 003 assessed as rice blast disease control at 125 ppm foliar application for 24 hr before inoculation by preventive manner
Podosphaera fuliginea [26] = assay: Fungicidal activity against Podosphaera fuliginea assessed as cucumber powdery mildew control at 0.5 ppm foliar application 24 hr before inoculation by preventive manner
Botrytis cinerea [27] = assay: Fungicidal activity against Botryotinia fuckeliana assessed as cucumber gray mold disease control at 125 ppm foliar application 24 hr after inoculation by curative manner
Thanatephorus cucumeris [28] = assay: Fungicidal activity against Thanatephorus cucumeris assessed as rice sheath blight disease control at 125 ppm foliar application for 24 hr after inoculation by curative manner
Podosphaera fuliginea [29] = assay: Fungicidal activity against Podosphaera fuliginea assessed as cucumber powdery mildew control at 7.8 ppm foliar application 24 hr before inoculation by preventive manner
[30] = test system: Pseudoperonospora cubensis; assay: Fungicidal activity against Pseudoperonospora cubensis assessed as cucumber downy mildew disease control at 2 ppm foliar application 24 hr before inoculation onto the abaxial(treated) surface of leaf by preventive manner
Thanatephorus cucumeris [31] = assay: Fungicidal activity against Thanatephorus cucumeris assessed as rice sheath blight disease control at 2 ppm foliar application for 24 hr before inoculation by preventive manner
Podosphaera fuliginea [32] = assay: Fungicidal activity against Podosphaera fuliginea assessed as cucumber powdery mildew control at 2 ppm foliar application 24 hr after inoculation by curative manner
Podosphaera fuliginea [33] = assay: Fungicidal activity against Podosphaera fuliginea assessed as cucumber powdery mildew control at 0.5 ppm foliar application 24 hr after inoculation by curative manner
Blumeria graminis [34] = assay: Fungicidal activity against Blumeria graminis f. sp. tritici assessed as wheat powdery mildew disease control at 125 ppm foliar application for 24 hr after inoculation by curative manner
Botrytis cinerea [35] = assay: Fungicidal activity against Botryotinia fuckeliana assessed as cucumber gray mold disease control at 2 ppm foliar application 24 hr before inoculation by preventive manner
Podosphaera fuliginea [36] = assay: Fungicidal activity against Podosphaera fuliginea assessed as cucumber powdery mildew control at 7.8 ppm foliar application 24 hr after inoculation by curative manner
[37] = test system: Pseudoperonospora cubensis; assay: Fungicidal activity against Pseudoperonospora cubensis assessed as cucumber downy mildew disease control at 7.8 ppm foliar application 24 hr before inoculation onto the adaxial(treated) surface of leaf by preventive manner
[38] = test system: Pseudoperonospora cubensis; assay: Fungicidal activity against Pseudoperonospora cubensis assessed as cucumber downy mildew disease control at 31.3 ppm foliar application 24 hr before inoculation onto the abaxial(treated) surface of leaf by preventive manner
Botrytis cinerea [39] = assay: Fungicidal activity against Botryotinia fuckeliana assessed as cucumber gray mold disease control at 125 ppm foliar application 24 hr before inoculation by preventive manner
[40] = test system: Pseudoperonospora cubensis; assay: Fungicidal activity against Pseudoperonospora cubensis assessed as cucumber downy mildew disease control at 7.8 ppm foliar application 24 hr before inoculation onto the abaxial(treated) surface of leaf by preventive manner
Botrytis cinerea [41] = assay: Fungicidal activity against Botryotinia fuckeliana assessed as cucumber gray mold disease control at 31.3 ppm foliar application 24 hr after inoculation by curative manner
[42] = test system: Pseudoperonospora cubensis; assay: Fungicidal activity against Pseudoperonospora cubensis assessed as cucumber downy mildew disease control at 31.3 ppm foliar application 24 hr before inoculation onto the adaxial(treated) surface of leaf by preventive manner
Podosphaera fuliginea [43] = assay: Fungicidal activity against Podosphaera fuliginea assessed as cucumber powdery mildew control at 2 ppm foliar application 24 hr before inoculation by preventive manner
[44] = test system: Pseudoperonospora cubensis; assay: Fungicidal activity against Pseudoperonospora cubensis assessed as cucumber downy mildew disease control at 2 ppm foliar application 24 hr after inoculation by curative manner
Botrytis cinerea [45] = assay: Fungicidal activity against Botryotinia fuckeliana assessed as cucumber gray mold disease control at 7.8 ppm foliar application 24 hr before inoculation by preventive manner
Thanatephorus cucumeris [46] = assay: Fungicidal activity against Thanatephorus cucumeris assessed as rice sheath blight disease control at 7.8 ppm foliar application for 24 hr before inoculation by preventive manner
Thanatephorus cucumeris [47] = assay: Fungicidal activity against Thanatephorus cucumeris assessed as rice sheath blight disease control at 31.3 ppm foliar application for 24 hr before inoculation by preventive manner
Thanatephorus cucumeris [48] = assay: Fungicidal activity against Thanatephorus cucumeris assessed as rice sheath blight disease control at 31.3 ppm foliar application for 24 hr after inoculation by curative manner
Blumeria graminis [49] = assay: Fungicidal activity against Blumeria graminis f. sp. tritici assessed as wheat powdery mildew disease control at 125 ppm foliar application for 24 hr before inoculation by preventive manner
Podosphaera fuliginea [50] = assay: Fungicidal activity against Podosphaera fuliginea assessed as cucumber powdery mildew control at 0.125 ppm foliar application 24 hr before inoculation by preventive manner
Botrytis cinerea [51] = assay: Fungicidal activity against Botryotinia fuckeliana assessed as cucumber gray mold disease control at 2 ppm foliar application 24 hr after inoculation by curative manner
Pyricularia oryzae [52] = assay: Fungicidal activity against Magnaporthe oryzae Cav. race 003 assessed as rice blast disease control at 2 ppm foliar application for 24 hr before inoculation by preventive manner
Blumeria graminis [53] = assay: Fungicidal activity against Blumeria graminis f. sp. tritici assessed as wheat powdery mildew disease control at 31.3 ppm foliar application for 24 hr after inoculation by curative manner
Botrytis cinerea [54] = assay: Fungicidal activity against Botryotinia fuckeliana assessed as cucumber gray mold disease control at 7.8 ppm treated 24 hr before inoculation by preventive manner
Pyricularia oryzae [55] = assay: Fungicidal activity against Magnaporthe oryzae Cav. race 003 assessed as rice blast disease control at 31.3 ppm treated 24 hr before inoculation by preventive manner

## CC(C)(C)C(=O)C(Oc1ccc(Cl)cc1)n1cncn1 (stereo not given) [TRIADIMEFON]
Blumeria graminis [1]
  Activity: 90%
Blumeria graminis [2]
  Activity: 90%
Blumeria graminis [3]
  Activity: 50%
Blumeria graminis [4]
  Activity: 97%
Blumeria graminis [5]
  Activity: 50%
Blumeria graminis [6]
  Activity: 30%
Blumeria graminis [7]
  Activity: 97%

## CNC(=O)C(OC)c1cccc(COc2ccccc2Br)c1 (stereo not given)
Pyricularia oryzae [8]
  Activity: 90%
Botrytis cinerea [9]
  Activity: 50%
Podosphaera fuliginea [10]
  Activity: 90%

## CO/N=C(/C(=O)OC)c1ccccc1COc1ccccc1C [KRESOXIM-METHYL]
Botrytis cinerea [11]
  Activity: 50%
Podosphaera fuliginea [12]
  Activity: 50%
Thanatephorus cucumeris [13]
  Activity: 0%
Thanatephorus cucumeris [14]
  Activity: 50%
[15]
  Activity: 30%
Botrytis cinerea [16]
  Activity: 0%
[17]
  Activity: 0%
Blumeria graminis [1]
  Activity: 70%
[18]
  Activity: 30%
[19]
  Activity: 97%
Blumeria graminis [2]
  Activity: 50%
[20]
  Activity: 97%
Pyricularia oryzae [21]
  Activity: 50%
[22]
  Activity: 0%
Pyricularia oryzae [23]
  Activity: 70%
Thanatephorus cucumeris [24]
  Activity: 0%
Pyricularia oryzae [25]
  Activity: 97%
Podosphaera fuliginea [26]
  Activity: 20%
Botrytis cinerea [27]
  Activity: 30%
Thanatephorus cucumeris [28]
  Activity: 50%
Podosphaera fuliginea [29]
  Activity: 97%
[30]
  Activity: 0%
Blumeria graminis [3]
  Activity: 30%
Thanatephorus cucumeris [31]
  Activity: 30%
Podosphaera fuliginea [32]
  Activity: 90%
Podosphaera fuliginea [33]
  Activity: 80%
Blumeria graminis [34]
  Activity: 90%
Botrytis cinerea [35]
  Activity: 20%
Blumeria graminis [4]
  Activity: 70%
Podosphaera fuliginea [36]
  Activity: 100%
[37]
  Activity: 97%
[38]
  Activity: 0%
Botrytis cinerea [39]
  Activity: 50%
[40]
  Activity: 0%
Botrytis cinerea [41]
  Activity: 10%
[42]
  Activity: 97%
Podosphaera fuliginea [43]
  Activity: 80%
[44]
  Activity: 0%
Botrytis cinerea [45]
  Activity: 50%
Thanatephorus cucumeris [46]
  Activity: 30%
Thanatephorus cucumeris [47]
  Activity: 30%
Thanatephorus cucumeris [48]
  Activity: 30%
Blumeria graminis [49]
  Activity: 90%
Podosphaera fuliginea [50]
  Activity: 0%
Botrytis cinerea [51]
  Activity: 0%
Blumeria graminis [7]
  Activity: 50%
Pyricularia oryzae [52]
  Activity: 30%
Blumeria graminis [53]
  Activity: 90%

## CNC(=O)C(OC)c1cccc(COc2cc(C)ccc2C)c1 (stereo not given)
Botrytis cinerea [11]
  Activity: 80%
Podosphaera fuliginea [12]
  Activity: 30%
Thanatephorus cucumeris [13]
  Activity: 30%
Thanatephorus cucumeris [14]
  Activity: 80%
[15]
  Activity: 70%
Botrytis cinerea [16]
  Activity: 50%
[17]
  Activity: 0%
Blumeria graminis [1]
  Activity: 90%
[18]
  Activity: 30%
[19]
  Activity: 97%
Blumeria graminis [2]
  Activity: 90%
[20]
  Activity: 97%
Pyricularia oryzae [21]
  Activity: 70%
[22]
  Activity: 30%
Pyricularia oryzae [23]
  Activity: 90%
Thanatephorus cucumeris [24]
  Activity: 20%
Pyricularia oryzae [25]
  Activity: 95%
Podosphaera fuliginea [26]
  Activity: 70%
Botrytis cinerea [27]
  Activity: 80%
Thanatephorus cucumeris [28]
  Activity: 70%
Botrytis cinerea [54]
  Activity: 50%
Podosphaera fuliginea [29]
  Activity: 99%
Pyricularia oryzae [55]
  Activity: 90%
[30]
  Activity: 50%
Blumeria graminis [3]
  Activity: 90%
Thanatephorus cucumeris [31]
  Activity: 10%
Podosphaera fuliginea [32]
  Activity: 100%
Podosphaera fuliginea [33]
  Activity: 70%
Blumeria graminis [34]
  Activity: 97%
Botrytis cinerea [35]
  Activity: 50%
Blumeria graminis [4]
  Activity: 97%
Podosphaera fuliginea [36]
  Activity: 100%
[37]
  Activity: 97%
[38]
  Activity: 70%
Botrytis cinerea [39]
  Activity: 80%
[40]
  Activity: 70%
Botrytis cinerea [41]
  Activity: 60%
[42]
  Activity: 97%
Podosphaera fuliginea [43]
  Activity: 90%
Podosphaera fuliginea [10]
  Activity: 90%
[44]
  Activity: 0%
Botrytis cinerea [45]
  Activity: 50%
Thanatephorus cucumeris [46]
  Activity: 20%
Thanatephorus cucumeris [47]
  Activity: 40%
Thanatephorus cucumeris [48]
  Activity: 40%
Blumeria graminis [49]
  Activity: 97%
Podosphaera fuliginea [50]
  Activity: 30%
Botrytis cinerea [51]
  Activity: 20%
Blumeria graminis [7]
  Activity: 90%
Pyricularia oryzae [52]
  Activity: 30%
Blumeria graminis [53]
  Activity: 97%

## CC(C)NC(=O)N1CC(=O)N(c2cc(Cl)cc(Cl)c2)C1=O [IPRODIONE]
Botrytis cinerea [11]
  Activity: 100%
Botrytis cinerea [16]
  Activity: 60%
Botrytis cinerea [27]
  Activity: 80%
Botrytis cinerea [35]
  Activity: 20%
Botrytis cinerea [39]
  Activity: 100%
Botrytis cinerea [41]
  Activity: 70%
Botrytis cinerea [45]
  Activity: 50%
Botrytis cinerea [51]
  Activity: 20%

## CNC(=O)C(OC)c1cccc(COc2ccc(C)cc2C)c1 (stereo not given)
Botrytis cinerea [54]
  Activity: 50%
Pyricularia oryzae [55]
  Activity: 90%
Podosphaera fuliginea [10]
  Activity: 90%
